The target of one experiment is T1, KCC2-S940A (Homo sapiens, UniProt Q9H2X9, S963A).
T1 construct: expressed in transfected cells; host or cells: HEK-293
T1 sequence (Q9H2X9 1-1116 isoform Q9H2X9-2 S940A): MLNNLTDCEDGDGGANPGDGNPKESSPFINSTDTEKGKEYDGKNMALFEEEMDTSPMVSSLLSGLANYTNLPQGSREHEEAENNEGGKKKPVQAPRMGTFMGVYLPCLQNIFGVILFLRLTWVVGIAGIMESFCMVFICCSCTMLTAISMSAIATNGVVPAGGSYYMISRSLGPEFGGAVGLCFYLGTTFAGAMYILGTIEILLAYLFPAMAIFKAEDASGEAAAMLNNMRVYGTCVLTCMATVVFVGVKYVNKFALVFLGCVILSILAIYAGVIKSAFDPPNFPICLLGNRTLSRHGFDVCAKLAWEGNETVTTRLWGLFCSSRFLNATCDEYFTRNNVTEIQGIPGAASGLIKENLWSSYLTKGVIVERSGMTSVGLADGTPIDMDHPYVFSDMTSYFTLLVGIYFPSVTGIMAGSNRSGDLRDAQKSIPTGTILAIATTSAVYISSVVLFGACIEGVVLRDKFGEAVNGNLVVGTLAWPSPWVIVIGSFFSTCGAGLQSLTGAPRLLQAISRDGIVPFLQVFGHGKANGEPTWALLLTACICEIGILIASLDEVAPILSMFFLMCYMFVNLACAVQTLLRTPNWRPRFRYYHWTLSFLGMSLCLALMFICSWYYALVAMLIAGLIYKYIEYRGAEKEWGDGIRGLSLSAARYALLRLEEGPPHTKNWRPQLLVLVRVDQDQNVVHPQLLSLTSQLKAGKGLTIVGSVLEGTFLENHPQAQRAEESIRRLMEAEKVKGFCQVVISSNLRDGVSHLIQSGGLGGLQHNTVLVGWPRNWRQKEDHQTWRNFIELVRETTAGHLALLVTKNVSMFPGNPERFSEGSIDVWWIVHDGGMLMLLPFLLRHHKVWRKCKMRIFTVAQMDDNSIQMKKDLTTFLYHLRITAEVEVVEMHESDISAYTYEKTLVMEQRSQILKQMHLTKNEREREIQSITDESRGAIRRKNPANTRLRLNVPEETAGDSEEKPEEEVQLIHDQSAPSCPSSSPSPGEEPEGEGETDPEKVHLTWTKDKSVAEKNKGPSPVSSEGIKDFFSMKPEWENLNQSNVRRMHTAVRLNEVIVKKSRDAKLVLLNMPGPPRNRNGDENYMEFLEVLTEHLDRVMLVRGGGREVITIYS
In words: Tl+ flux assay, KCC2-S940A construct. The note with it: HEK-293. The format is cell-based. As for the experimental part:
(§1) FLIPR TI Flux assay. HEK-293 cells were washed with HBSS, and then incubated with loading buffer containing TI sensitive fluorescent dye (https://www.moleculardevices.com), 20 μM bumetanide 20 μM ouabain and 2.5 mM probenecid for 1 h at room temperature (RT) under control conditions or with drugs in the dark using a FlexStation 3 microplate reader (Molecular Devices) and imaged […] for 30 min. Stimulus buffer was added containing 5 mM K^+/0.5 mM Tl^+ and cells were imaged every 1.5 over a 190 second time course The initial rate Tl^+ uptake (Relative Fluorescence Units (RFU) per second) was determined following addition of the stimulus buffer as outlined previously (Conway et at, 2017, supra) (Lee et at, 2022, supra).
(§2) Several studies have shown that the activity and plasma membrane accumulation of KCC2 is potentiated via phosphorylation of S940, a process mediated by the activity of protein kinase C and protein phosphatase 1 (Lee et al., 2011, supra; Lee et al., J Biol Chem 282, 29777-29784 (2007); Moore et al., Proc. Natl. Acad. Sci. U.S.A. 115, 10166-10171 (2018); Moore et al., Trends Neurosci. 40, 555-571 (2017); Silayeva et al., Proc. Natl. Acad. Sci. U.S.A. 112, 3523-3528 (2015)). […] Compared to KCC2, effects on KCC3, KCC4, and NKCC1 were only seen at concentrations more than 35-fold that of KCC2 (>100 μM) (FIG. 1G).

Another experiment concerns the target T2, KCC4 (Homo sapiens, UniProt Q9Y666).
T2 construct: expressed in transfected cells; host or cells: HEK-293
T2 sequence (Q9Y666 1-1083): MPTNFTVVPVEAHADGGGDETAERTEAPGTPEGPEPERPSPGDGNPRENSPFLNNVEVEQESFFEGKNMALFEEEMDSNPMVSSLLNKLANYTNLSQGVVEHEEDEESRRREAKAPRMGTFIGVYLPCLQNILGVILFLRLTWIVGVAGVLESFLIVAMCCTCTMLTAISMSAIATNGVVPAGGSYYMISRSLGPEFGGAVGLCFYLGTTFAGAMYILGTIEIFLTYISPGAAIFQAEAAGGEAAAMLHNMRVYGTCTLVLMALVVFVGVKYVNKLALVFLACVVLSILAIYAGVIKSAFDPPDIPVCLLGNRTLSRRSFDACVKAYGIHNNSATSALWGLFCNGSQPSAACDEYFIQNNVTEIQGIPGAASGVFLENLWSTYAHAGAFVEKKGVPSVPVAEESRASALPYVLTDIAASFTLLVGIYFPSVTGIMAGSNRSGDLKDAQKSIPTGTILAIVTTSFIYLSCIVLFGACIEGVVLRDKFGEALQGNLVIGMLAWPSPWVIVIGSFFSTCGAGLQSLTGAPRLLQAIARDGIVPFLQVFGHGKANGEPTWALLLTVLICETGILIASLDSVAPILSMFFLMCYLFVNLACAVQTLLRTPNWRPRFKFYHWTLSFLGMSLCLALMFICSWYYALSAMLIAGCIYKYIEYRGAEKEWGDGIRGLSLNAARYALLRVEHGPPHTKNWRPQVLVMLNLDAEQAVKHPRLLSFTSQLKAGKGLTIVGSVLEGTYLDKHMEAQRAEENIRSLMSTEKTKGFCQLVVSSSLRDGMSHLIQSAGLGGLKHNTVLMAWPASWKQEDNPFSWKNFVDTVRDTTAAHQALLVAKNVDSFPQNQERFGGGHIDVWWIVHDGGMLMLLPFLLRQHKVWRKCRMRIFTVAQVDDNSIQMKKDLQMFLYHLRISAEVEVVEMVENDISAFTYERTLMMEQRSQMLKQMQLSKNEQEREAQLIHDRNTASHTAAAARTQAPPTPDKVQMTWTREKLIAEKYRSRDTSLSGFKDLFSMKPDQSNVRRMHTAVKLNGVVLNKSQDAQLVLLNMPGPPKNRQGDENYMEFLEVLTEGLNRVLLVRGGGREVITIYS
In words: Tl+ assay, HEK-293 cells expressing KCC4. In kind it is cell-based. The following applies: read-out: concentration at which effects on KCC4 were seen (EC50 chart FIG. 1G). As for the experimental part: as §1, §2

Turning to `C[C@@H]1CN(c2nc3c(c(Nc4ccc(C5CCCCC5)cc4)n2)COC3)CCO1` [Compound A, (R)—N-(4-cyclohexylphenyl)-2-(2-methylmorpholino)-5,7-dihydrofuro[3,4-d]pyrimidin-4-amine], the “activity of KCC2-S940A construct” value on KCC2-S940A was “increased the activity”. Besides, the EC50 on KCC4 is more than 100 µM.

For the origin of these results see patent US20250281497A1, “FUSED AMINO PYRIMIDINE COMPOUNDS FOR TREATMENT OF SEIZURE DISORDERS” (Ovid Therapeutics Inc., priority 2024, published 2025).
